# Results taken from patent publication US10639345B2, “Compositions for preserving photoreceptor cells, retinal pigment epithelial cells, or visual function” (Massachusetts Eye and Ear Infirmary, priority 2010, dated 2020).
# Where a SMILES comes first, the peptide text is derived from it. The star is where a group is joined. Cbz = O=C(OCc1ccccc1)*; CH2F = FC*
# Tested on: CD11b-positive macrophage/microglia
# Assay: CD11b immunohistochemistry after retinal detachment
# Format: in vivo
# Settings: day three after retinal detachment
# Description: Immunohistochemistry (IHC) was performed as previously reported (Murakami Y et al. (2008) AM J PATHOL 173:1326-1338). Rat anti-CD11b antibody (1:50; BD Biosciences, San Diego, Calif.) was used as the primary antibody. The specimens were imaged by confocal microscopy using the Leica HCX APOL40× lens.
# Since the release of intracellular content in necrosis results in secondary inflammation, changes in the inflammatory response after retinal detachment were investigated by immunohistochemistry and immunofluorescence with an antibody against CD11b. FIG. 11A-B show IHC for CD11b (FIG. 11A) and quantification of CD11b-positive cells in control retina without retinal detachment and in retina treated with vehicle, Z-VAD or Z-VAD+Nec-1 (n=6 each) (FIG. 11B) at three days after retinal detachment. (*, P<0.05; **, P<0.01; NS, not significant; Scale bar, 50 μm).
smiles,measurement,value
"COC(=O)CC(NC(=O)C(C)NC(=O)C(NC(=O)OCc1ccccc1)C(C)C)C(=O)CF (stereo not drawn) [Z-VAD, Benzyloxycarbonyl-Val-Ala-Asp(OMe)-fluoromethylketone] (Cbz-Val-Ala-Asp(OMe)-CH2F; configuration not given here)",infiltration of CD11b-positive cells in the retina,514.7±54.5 cells/mm^2
